Laboratory results taken from ChEMBL document CHEMBL6120971 (J Med Chem, 2024).
Calls of active or inactive are those of the source. The calls are words filed in the database; no cut-off is given here.

Legend:
MKN-45 [1] = assay: Antiproliferative activity against human MKN-45 cells incubated for 72 hrs by CCK8 assay; assay type: functional, cell-based; details: MKN-45, 72 h
[2] = target: T1, Protein cereblon/Hepatocyte growth factor receptor (Homo sapiens, UniProt P08581+Q96SW2); assay: PROTAC activity at CRBN/c-MET in human MKN-45 cells assessed as induction of c-MET degradation at 6.25 nM incubated for 24 hrs by Western blot analysis; assay type: cell-based
Target sequence in this assay (P08581 25-1390 limits assumed): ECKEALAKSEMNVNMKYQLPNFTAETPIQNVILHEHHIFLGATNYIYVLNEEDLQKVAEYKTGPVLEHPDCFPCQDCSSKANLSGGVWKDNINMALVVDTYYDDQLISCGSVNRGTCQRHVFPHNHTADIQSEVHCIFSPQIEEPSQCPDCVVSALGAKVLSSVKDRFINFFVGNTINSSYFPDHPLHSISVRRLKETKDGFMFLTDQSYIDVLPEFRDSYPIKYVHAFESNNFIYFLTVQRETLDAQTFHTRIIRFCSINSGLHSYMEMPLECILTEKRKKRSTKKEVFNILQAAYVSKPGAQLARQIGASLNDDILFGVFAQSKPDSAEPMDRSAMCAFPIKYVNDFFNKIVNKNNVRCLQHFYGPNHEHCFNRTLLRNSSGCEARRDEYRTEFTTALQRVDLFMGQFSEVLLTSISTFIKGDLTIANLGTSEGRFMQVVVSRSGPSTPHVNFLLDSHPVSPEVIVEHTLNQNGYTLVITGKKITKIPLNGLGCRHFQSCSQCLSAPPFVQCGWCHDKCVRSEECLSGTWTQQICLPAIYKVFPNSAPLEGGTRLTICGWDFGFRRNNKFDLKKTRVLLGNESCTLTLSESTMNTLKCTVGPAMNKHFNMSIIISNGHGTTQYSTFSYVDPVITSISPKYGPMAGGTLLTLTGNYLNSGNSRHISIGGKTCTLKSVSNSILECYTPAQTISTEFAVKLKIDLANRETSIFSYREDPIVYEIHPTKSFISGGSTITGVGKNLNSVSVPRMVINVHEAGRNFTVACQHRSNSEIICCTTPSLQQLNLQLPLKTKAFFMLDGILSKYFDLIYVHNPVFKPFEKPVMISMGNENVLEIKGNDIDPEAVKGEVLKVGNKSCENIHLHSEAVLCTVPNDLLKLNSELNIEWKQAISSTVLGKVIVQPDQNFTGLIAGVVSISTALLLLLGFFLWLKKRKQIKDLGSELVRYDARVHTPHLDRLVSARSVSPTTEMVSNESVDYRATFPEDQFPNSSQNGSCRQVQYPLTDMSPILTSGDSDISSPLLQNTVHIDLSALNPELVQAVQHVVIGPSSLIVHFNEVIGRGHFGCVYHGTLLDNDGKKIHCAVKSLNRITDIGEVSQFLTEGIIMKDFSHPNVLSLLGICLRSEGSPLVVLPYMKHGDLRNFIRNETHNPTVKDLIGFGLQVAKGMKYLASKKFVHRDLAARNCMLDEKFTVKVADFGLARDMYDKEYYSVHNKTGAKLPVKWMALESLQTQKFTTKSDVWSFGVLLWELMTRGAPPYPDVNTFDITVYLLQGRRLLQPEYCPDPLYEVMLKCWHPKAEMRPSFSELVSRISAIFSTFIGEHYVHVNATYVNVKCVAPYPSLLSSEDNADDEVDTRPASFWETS
Target sequence in this assay (Q96SW2 whole entry partner): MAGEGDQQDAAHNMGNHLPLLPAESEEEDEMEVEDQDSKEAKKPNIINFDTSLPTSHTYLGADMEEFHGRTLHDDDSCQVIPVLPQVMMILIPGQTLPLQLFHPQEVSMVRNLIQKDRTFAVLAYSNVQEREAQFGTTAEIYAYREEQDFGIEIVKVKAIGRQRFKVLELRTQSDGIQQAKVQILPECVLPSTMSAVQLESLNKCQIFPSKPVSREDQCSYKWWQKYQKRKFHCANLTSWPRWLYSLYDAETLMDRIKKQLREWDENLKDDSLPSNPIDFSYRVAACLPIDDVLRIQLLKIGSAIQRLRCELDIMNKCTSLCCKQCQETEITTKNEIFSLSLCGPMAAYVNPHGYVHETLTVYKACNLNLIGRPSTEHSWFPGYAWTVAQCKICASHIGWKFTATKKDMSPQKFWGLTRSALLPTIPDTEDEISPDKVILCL

[3] = target: T1, Protein cereblon/Hepatocyte growth factor receptor; assay: PROTAC activity at CRBN/c-MET in human MKN-45 cells assessed as induction of c-MET degradation incubated for 24 hrs by Western blot analysis; assay type: cell-based
Target sequence in this assay (P08581 whole entry): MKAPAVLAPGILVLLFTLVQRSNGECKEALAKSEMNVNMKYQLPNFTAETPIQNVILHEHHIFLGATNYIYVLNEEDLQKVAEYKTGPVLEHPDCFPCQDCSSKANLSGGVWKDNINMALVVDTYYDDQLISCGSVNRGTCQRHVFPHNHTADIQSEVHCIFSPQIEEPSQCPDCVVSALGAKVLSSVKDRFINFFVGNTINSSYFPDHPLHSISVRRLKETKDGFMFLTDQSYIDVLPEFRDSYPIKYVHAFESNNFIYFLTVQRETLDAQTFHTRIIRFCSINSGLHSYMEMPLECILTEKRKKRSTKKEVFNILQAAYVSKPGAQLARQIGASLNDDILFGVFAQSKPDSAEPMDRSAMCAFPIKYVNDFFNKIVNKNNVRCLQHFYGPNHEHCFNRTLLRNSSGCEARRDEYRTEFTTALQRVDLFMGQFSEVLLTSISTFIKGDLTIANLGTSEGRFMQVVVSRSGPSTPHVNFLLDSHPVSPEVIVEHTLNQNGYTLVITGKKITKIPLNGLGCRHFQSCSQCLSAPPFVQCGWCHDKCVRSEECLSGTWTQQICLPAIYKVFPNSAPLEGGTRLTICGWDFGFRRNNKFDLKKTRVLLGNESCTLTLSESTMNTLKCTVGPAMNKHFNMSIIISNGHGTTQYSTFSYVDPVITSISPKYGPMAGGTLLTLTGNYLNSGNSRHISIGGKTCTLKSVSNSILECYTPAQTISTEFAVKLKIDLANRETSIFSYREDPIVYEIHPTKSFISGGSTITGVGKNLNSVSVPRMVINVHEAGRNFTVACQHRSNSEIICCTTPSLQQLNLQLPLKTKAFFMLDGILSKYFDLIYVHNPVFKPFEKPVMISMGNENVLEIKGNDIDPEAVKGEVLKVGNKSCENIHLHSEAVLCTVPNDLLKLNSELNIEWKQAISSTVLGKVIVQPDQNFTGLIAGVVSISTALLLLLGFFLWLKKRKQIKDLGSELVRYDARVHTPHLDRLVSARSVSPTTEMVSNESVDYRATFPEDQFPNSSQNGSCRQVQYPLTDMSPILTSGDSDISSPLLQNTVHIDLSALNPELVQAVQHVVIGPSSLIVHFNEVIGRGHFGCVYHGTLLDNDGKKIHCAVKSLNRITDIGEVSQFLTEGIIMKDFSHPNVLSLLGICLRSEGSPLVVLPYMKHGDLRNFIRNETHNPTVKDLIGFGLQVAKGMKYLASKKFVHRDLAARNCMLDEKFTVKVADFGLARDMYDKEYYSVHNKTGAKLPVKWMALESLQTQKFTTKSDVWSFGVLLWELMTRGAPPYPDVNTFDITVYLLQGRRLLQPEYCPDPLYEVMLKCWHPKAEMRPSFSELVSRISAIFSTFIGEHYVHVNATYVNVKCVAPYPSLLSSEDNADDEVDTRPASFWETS
Target sequence in this assay (Q96SW2 whole entry): as the sequence (Q96SW2 whole entry partner) above

[4] = target: T1, Protein cereblon/Hepatocyte growth factor receptor; assay: PROTAC activity at CRBN/c-MET in human MKN-45 cells assessed as induction of c-MET degradation by measuring maximal efficacy incubated for 24 hrs by Western blot analysis relative to control; assay type: cell-based
Target sequence in this assay (P08581 25-1390 limits assumed): as the sequence (P08581 25-1390 limits assumed) above
Target sequence in this assay (Q96SW2 whole entry partner): as the sequence (Q96SW2 whole entry partner) above

[5] = target: T1, Protein cereblon/Hepatocyte growth factor receptor; assay: PROTAC activity at CRBN/c-MET in human MKN-45 cells assessed as induction of c-MET degradation at 100 nM incubated for 2 to 16 hrs by Western blot analysis; assay type: cell-based; details: time 2-16 hrs
Target sequence in this assay (P08581 25-1390 limits assumed): as the sequence (P08581 25-1390 limits assumed) above
Target sequence in this assay (Q96SW2 whole entry partner): as the sequence (Q96SW2 whole entry partner) above

[6] = target: T1, Protein cereblon/Hepatocyte growth factor receptor; assay: PROTAC activity at CRBN/c-MET in human Hs746T cells assessed as induction of c-MET degradation at 12.5 to 200 nM incubated for 24 hrs by Western blot analysis; assay type: cell-based; details: dose 12.5-200 nM
Target sequence in this assay (P08581 25-1390 limits assumed): as the sequence (P08581 25-1390 limits assumed) above
Target sequence in this assay (Q96SW2 whole entry partner): as the sequence (Q96SW2 whole entry partner) above

[7] = target: T1, Protein cereblon/Hepatocyte growth factor receptor; assay: PROTAC activity at CRBN/c-MET in human PC-9 cells assessed as induction of c-MET degradation at 3.125 to 50 nM incubated for 24 hrs by Western blot analysis; assay type: cell-based; details: dose 3.125-50 nM
Target sequence in this assay (P08581 25-1390 limits assumed): as the sequence (P08581 25-1390 limits assumed) above
Target sequence in this assay (Q96SW2 whole entry partner): as the sequence (Q96SW2 whole entry partner) above

PC-9 = assay: Inhibition of c-MET/Akt signaling pathway activation in human PC-9 cells at 3.125 to 50 nM incubated for 24 hrs by Western blot analysis; assay type: cell-based; details: dose 3.125-50 nM
[8] = target: T1, Protein cereblon/Hepatocyte growth factor receptor; assay: PROTAC activity at CRBN/c-MET in human NGEC cells assessed as induction of c-MET degradation upto 50 nM incubated for 24 hrs by Western blot analysis; assay type: cell-based; details: NGEC cell
Target sequence in this assay (P08581 25-1390 limits assumed): as the sequence (P08581 25-1390 limits assumed) above
Target sequence in this assay (Q96SW2 whole entry partner): as the sequence (Q96SW2 whole entry partner) above

[9] = target: T1, Protein cereblon/Hepatocyte growth factor receptor; assay: PROTAC activity at CRBN/c-MET in human PC-3 cells assessed as induction of c-MET degradation at 12.5 to 100 nM incubated for 24 hrs by Western blot analysis; assay type: cell-based; details: dose 12.5-100 nM
[10] = target: T1, Protein cereblon/Hepatocyte growth factor receptor; assay: PROTAC activity at CRBN/c-MET in human A549 cells assessed as induction of c-MET degradation at 12.5 to 200 nM incubated for 24 hrs by Western blot analysis; assay type: cell-based; details: dose 12.5-200 nM
[11] = target: T1, Protein cereblon/Hepatocyte growth factor receptor; assay: PROTAC activity at CRBN/c-MET in human MKN-45 cells assessed as induction of c-MET degradation at 100 nM preincubated with capmatinib for 2 hrs followed by compound addition and measured after 24 hrs by Western blot analysis; assay type: cell-based
[12] = target: T1, Protein cereblon/Hepatocyte growth factor receptor; assay: PROTAC activity at CRBN/c-MET in human MKN-45 cells assessed as induction of c-MET degradation at 100 nM preincubated with MLN4924 for 2 hrs followed by compound addition and measured after 24 hrs by Western blot analysis; assay type: cell-based
[13] = Tmax in male Sprague-Dawley rat at 10 mg/kg, iv measured after 24 hrs by LC-MS/MS analysis; assay type: ADME, organism-based; details: in vivo
[14] = Cmax in male Sprague-Dawley rat at 10 mg/kg, iv measured after 24 hrs by LC-MS/MS analysis; assay type: ADME, organism-based; details: in vivo
[15] = Downregulation of c-MET protein level in human MKN-45 cells assessed as residual activity at 100 nM incubated for 24 hrs by MS-based quantitative proteomics analysis relative to control; assay type: functional
MKN-45 [16] = assay: Upregulation of PDCD4 protein level in human MKN-45 cells at 100 nM incubated for 24 hrs by MS-based quantitative proteomics analysis; assay type: functional, cell-based
MKN-45 [17] = assay: Downregulation of ULK2B protein level in human MKN-45 cells at 100 nM incubated for 24 hrs by MS-based quantitative proteomics analysis; assay type: functional, cell-based
[18] = target: T1, Protein cereblon/Hepatocyte growth factor receptor; assay: PROTAC activity at CRBN/c-MET in human MKN-45 cells assessed as induction of c-MET degradation at 6.25 to 100 nM incubated for 24 hrs by Western blot analysis; assay type: cell-based; details: dose 6.25-100 nM
MKN-45 [19] = assay: Downregulation of CHCHD2 protein level in human MKN-45 cells at 100 nM incubated for 24 hrs by MS-based quantitative proteomics analysis; assay type: functional, cell-based
[20] = target: Protein cereblon/Importin subunit alpha-1 (Homo sapiens) (UniProt P52292+Q96SW2); assay: PROTAC activity at CRBN/KPNA2 in human MKN-45 cells assessed as induction of c-MET degradation at 6.25 to 100 nM incubated for 24 hrs by Western blot analysis; assay type: cell-based; details: dose 6.25-100 nM
MKN-45 [21] = assay: Antitumor activity against human MKN-45 cells xenografted in BALB/c nude mouse assessed as reduction in tumor growth administered orally as once daily dose for 21 days; assay type: functional; details: dose 10-40 mg/kg, route po, time 21.0 day
MKN-45 [22] = assay: Antitumor activity against human MKN-45 cells xenografted in BALB/c nude mouse assessed as reduction in tumor growth at 10 mg/kg, po administered once daily for 21 days; assay type: functional, organism-based; details: time 21.0 day
[23] = target: T1, Protein cereblon/Hepatocyte growth factor receptor; assay: In vivo PROTAC activity at CRBN/c-MET in BALB/c nude mouse xenografted with human MKN-45 cells assessed as decrease in c-MET protein level in tumor at 10 to 40 mg/kg, po administered once daily for 21 days and measured after 24 hrs post last dose by Western blot analysis; assay type: functional, organism-based; details: dose 10-40 mg/kg, time 22.0 day
[24] = Toxicity in BALB/c nude mouse xenografted with human MKN-45 cells assessed as effect on spleen morphology at 10 to 40 mg/kg, po administered once daily for 21 days by H and E staining based analysis; assay type: organism-based; details: in vivo, 504 h, dose 10-40 mg/kg, time 21 day
[25] = Toxicity in BALB/c nude mouse xenografted with human MKN-45 cells assessed as effect on kidney morphology at 10 to 40 mg/kg, po administered once daily for 21 days by H and E staining based analysis; assay type: organism-based; details: in vivo, 504 h, dose 10-40 mg/kg, time 21 day
Mus musculus [26] = assay: Downregulation of c-MET protein level in BALB/c nude mouse lung xenografted with human MKN-45 cells at 10 mg/kg, po measured after 48 hrs by Western blot analysis; assay type: functional, organism-based
Mus musculus [27] = assay: Downregulation of c-MET protein level in BALB/c nude mouse stomach xenografted with human MKN-45 cells at 10 mg/kg, po measured after 48 hrs by Western blot analysis; assay type: functional, organism-based
[28] = Tmax in male Sprague-Dawley rat at 10 mg/kg, po measured after 24 hrs by LC-MS/MS analysis; assay type: ADME, organism-based; details: in vivo
[29] = Cmax in male Sprague-Dawley rat at 10 mg/kg, po measured after 24 hrs by LC-MS/MS analysis; assay type: ADME, organism-based; details: in vivo
[30] = MRT (0 to infinity) in male Sprague-Dawley rat at 10 mg/kg, po measured after 24 hrs by LC-MS/MS analysis; assay type: ADME, organism-based; details: in vivo
[31] = Half-life in male Sprague-Dawley rat at 10 mg/kg, iv measured after 24 hrs by LC-MS/MS analysis; assay type: ADME, organism-based; details: in vivo
[32] = MRT (0 to infinity) in male Sprague-Dawley rat at 10 mg/kg, iv measured after 24 hrs by LC-MS/MS analysis; assay type: ADME, organism-based; details: in vivo

IC50 (MKN-45 [1]): 4.37 nM
Activity [2]: Active
DC50 [3]: 6.21 nM
Emax [4]: 96.8%
Activity [5]: Active
Activity [6]: Active
Activity [7]: Active
Activity [8]: Weak_effect
Activity [9]: inactive
Activity [10]: inactive
Activity [11]: inactive
Activity [12]: inactive
Tmax [13]: 4.8 min
Cmax [14]: 1650 ng/mL
Activity [18]: Active
Activity [20]: inactive
Activity [23]: Active
Tmax [28]: 2 h
Cmax [29]: 70.7 ng/mL
MRT inf [30]: 6.66 h
half-life [31]: 5.35 h
MRT inf [32]: 2.56 h
SMILES: O=C1CCC(N2C(=O)c3ccc(N4CCN(CC5CCN(C(=O)c6ccc(-c7cnc8ncc(Cc9ccc%10ncccc%10c9)n8n7)cc6F)CC5)CC4)cc3C2=O)C(=O)N1 (stereo not drawn)
inhibition (PC-9): Active
Activity [15]: 3.38%
Activity (MKN-45 [16]): Active
Activity (MKN-45 [17]): Active
Activity (MKN-45 [19]): Active
Activity (MKN-45 [21]): Dose-dependent-effect
Activity (MKN-45 [22]): Active; Significant Effect Observed
Activity [24]: Non-toxic
Activity [25]: Non-toxic
Activity (Mus musculus [26]): Not active; Favorable Tissue Specificity Of Compound Observed
Activity (Mus musculus [27]): Not active; Favorable Tissue Specificity Of Compound Observed
